Results as given in US12492181B2, “Gem-disubstituted piperidine melanocortin subtype-2 receptor (MC2R) antagonists and uses thereof” (Crinetics Pharmaceuticals, Inc., priority 2019, dated 2025).

Molecular target: T1, hMC2 receptor (crude hMC2R membranes from CRE-bla-CHO-K1 cells stably expressing hMC2 receptor and hMRAP accessory protein) (Homo sapiens, UniProt Q01718)
T1 construct: crude membrane fractions
Assay: hMC2 membrane binding assay ([125I]ACTH (1-39) Tyr23, SPA)
Conditions: displacement of 0.2 nM [125I]ACTH (1-39) Tyr23 from hMC2R membranes, 1.5 hours at room temperature; read-out: MC2R binding potency
Procedure: Crude membrane fractions are prepared from CRE-bla-CHO-K1 cells stably expressing hMC2 receptor and hMRAP accessory protein (Thermo Fisher). The cells are grown to 85-100% confluence on standard tissue culture dishes in GlutaMax DMEM growth media (Gibco) with following additives: 10% dialyzed FBS (Gemini), 0.1 mM NEAA (Gibco), 25 mM HEPES (Gibco), 5 μg/mL blasticidin (Goldbio), 100 μg/mL zeocin (Invitrogen), 600 μg/mL hygromycin (Goldbio). To prepare membranes, cells are scraped and collected in 1× Dulbecco's phosphate buffered saline (Corning) and then pelleted at 1000 RPM's. The cell pellet is reconstituted in membrane preparation buffer (20 mM HEPES, 6 mM MgCl2 and 1 mM EGTA, protease inhibitor tablets (Pierce) adjusted to pH 7.4), homogenized using a dounce homogenizer, and the resulting membrane fraction is pelleted by centrifugation at 12,000 RPM's. The membrane pellet is resuspended in membrane preparation buffer, snap freezed and stored at −80° C. for later use.
Binding Assay for hMC2 Antagonists Protocol:
The hMC2 membrane binding assay utilizes the following components: radiolabel [^125I]ACTH (1-39) Tyr23 (PerkinElmer), wheatgerm agglutinin coated PVT SPA beads (PerkinElmer), crude hMC2R membranes, and compounds. Briefly hMC2R membranes are incubated with SPA beads in binding assay buffer (50 mM HEPES, 5 mM MgCl2, 1 mM CaCl2), 0.20% BSA, protease inhibitor tablets (Pierce) adjusted to pH7.4) prior to assay initiation. […] Assay plates are read using a Top Count NXT and Ki values for compounds are determined using a GraphPad Prism 6 non-linear regression analysis.

T1 sequence (Q01718 whole entry): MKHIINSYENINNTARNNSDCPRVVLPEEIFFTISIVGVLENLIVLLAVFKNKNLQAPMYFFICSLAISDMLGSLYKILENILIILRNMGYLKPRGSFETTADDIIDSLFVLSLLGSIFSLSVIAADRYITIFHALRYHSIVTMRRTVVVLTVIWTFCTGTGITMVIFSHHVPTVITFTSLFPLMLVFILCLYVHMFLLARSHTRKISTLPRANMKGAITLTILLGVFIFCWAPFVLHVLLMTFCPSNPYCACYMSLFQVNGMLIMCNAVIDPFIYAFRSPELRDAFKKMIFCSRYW
T1 sequence (Q8TCY5 whole entry partner): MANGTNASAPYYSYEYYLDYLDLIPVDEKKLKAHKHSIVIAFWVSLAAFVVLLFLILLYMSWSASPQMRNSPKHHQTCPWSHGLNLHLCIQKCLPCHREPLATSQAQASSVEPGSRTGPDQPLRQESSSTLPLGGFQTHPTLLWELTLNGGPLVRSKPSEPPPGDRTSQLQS

| Compound | Ki |
| --- | --- |
| CN1CC[C@@H](NC(=O)C2(c3ccc(-c4ccccc4CC#N)nc3)CCN(c3ccc(C(F)(F)F)cc3C#N)CC2)C1 [Compound 1-137, 1-[2-cyano-4-(trifluoromethyl)phenyl]-4-{6-[2-(cyanomethyl)phenyl]pyridin-3-yl}-N-[(3R)-1-methylpyrrolidin-3-yl]piperidine-4-carboxamide] | 10 to 100 nM |
| CCOc1ncccc1-c1ccc(C2(C(=O)N[C@@H]3CCN(C)C3)CCN(c3ccc(C(F)(F)F)c(Cl)c3)CC2)cc1 [Compound 1-165, 1-[3-chloro-4-(trifluoromethyl)phenyl]-4-[4-(2-ethoxypyridin-3-yl)phenyl]-N-[(3R)-1-methylpyrrolidin-3-yl]piperidine-4-carboxamide] | 10 to 100 nM |
| CCOc1ccccc1-c1ncc(C2(C(=O)N[C@H]3CCN(C)C3)CCN(c3ccc(C(F)(F)F)cc3C#N)CC2)cc1F [Compound 1-124, 1-[2-cyano-4-(trifluoromethyl)phenyl]-4-[6-(2-ethoxyphenyl)-5-fluoropyridin-3-yl]-N-[(3S)-1-methylpyrrolidin-3-yl]piperidine-4-carboxamide] | < 10 nM |
| CN1CC[C@@H](NC(=O)C2(c3ccc(-c4cc(F)cc(F)c4)nc3)CCN(c3ccc(C(F)(F)F)cc3C#N)CC2)C1 [Compound 1-65, 1-[2-cyano-4-(trifluoromethyl)phenyl]-4-[6-(3,5-difluorophenyl)pyridin-3-yl]-N-[(3R)-1-methylpyrrolidin-3-yl]piperidine-4-carboxamide] | 10 to 100 nM |
| COc1ccc(F)cc1-c1ncc(C2(C(=O)N[C@H]3CCN(C)C3)CCN(c3ccc(C(F)(F)F)cc3C#N)CC2)cc1F [Compound 1-195, 1-[2-cyano-4-(trifluoromethyl)phenyl]-4-[5-fluoro-6-(5-fluoro-2-methoxyphenyl)pyridin-3-yl]-N-[(3S)-1-methylpyrrolidin-3-yl]piperidine-4-carboxamide] | < 10 nM |
| COc1ncc(F)cc1-c1ccc(C2(C(=O)N[C@H]3CCN(C)C3)CCN(c3ccc(C(F)(F)F)cc3Cl)CC2)cn1 [Compound 1-154, 1-[2-chloro-4-(trifluoromethyl)phenyl]-4-{5′-fluoro-2′-methoxy-[2,3′-bipyridin]-5-yl}-N-[(3S)-1-methylpyrrolidin-3-yl]piperidine-4-carboxamide] | < 10 nM |
| COc1ccccc1-c1ncc(C2(NC(=O)CCN(C)C)CCN(c3ccc(C(F)(F)F)cc3C#N)CC2)cc1F [Compound 2-62, N-{1-[2-cyano-4-(trifluoromethyl)phenyl]-4-[5-fluoro-6-(2-methoxyphenyl)pyridin-3-yl]piperidin-4-yl}-3-(dimethylamino)propanamide] | < 10 nM |
| COc1ccsc1-c1ccc(C2(C(=O)N[C@@H]3CCN(C)C3)CCN(c3ccc(C(F)(F)F)cc3C#N)CC2)cn1 [Compound 1-80, 1-[2-cyano-4-(trifluoromethyl)phenyl]-4-[6-(3-methoxythiophen-2-yl)pyridin-3-yl]-N-[(3R)-1-methylpyrrolidin-3-yl]piperidine-4-carboxamide] | < 10 nM |
| CCOc1ccccc1-c1ccc(C2(C(=O)N[C@H]3CCN(C)C3)CCN(c3ccc(Cl)cc3C#N)CC2)cn1 [Compound 1-90, 1-(4-chloro-2-cyanophenyl)-4-[6-(2-ethoxyphenyl)pyridin-3-yl]-N-[(3S)-1-methylpyrrolidin-3-yl]piperidine-4-carboxamide] | < 10 nM |
| CCOc1ncccc1-c1ccc(C2(C(=O)N[C@@H](C)CNC)CCN(c3ccc(C(F)(F)F)cc3F)CC2)cn1 [Compound 1-321, 4-{2′-ethoxy-[2,3′-bipyridin]-5-yl}-1-[2-fluoro-4-(trifluoromethyl)phenyl]-N-[(2S)-1-(methylamino)propan-2-yl]piperidine-4-carboxamide] | < 10 nM |
| COc1ccccc1-c1ccc(C2(C(=O)N[C@H]3CCN(C)C3)CCN(c3ccc(C(F)(F)F)cc3Cl)CC2)cn1 [Compound 1-144, 1-[2-chloro-4-(trifluoromethyl)phenyl]-4-[6-(2-methoxyphenyl)pyridin-3-yl]-N-[(3S)-1-methylpyrrolidin-3-yl]piperidine-4-carboxamide] | < 10 nM |
| CCOc1ccccc1-c1ccc(C2(NC(=O)CCN(C)C)CCN(c3ccc(Cl)cc3C#N)CC2)cn1 [Compound 2-30, N-[1-(4-chloro-2-cyanophenyl)-4-[6-(2-ethoxyphenyl)pyridin-3-yl]piperidin-4-yl]-3-(dimethylamino)propanamide] | < 10 nM |
| C[C@H](CN(C)C)NC(=O)C1(c2ccc(-c3cccn3C)nc2)CCN(c2ccc(C(F)(F)F)cc2C#N)CC1 [Compound 1-260, 1-[2-cyano-4-(trifluoromethyl)phenyl]-N-[(2R)-1-(dimethylamino)propan-2-yl]-4-[6-(1-methyl-1H-pyrrol-2-yl)pyridin-3-yl]piperidine-4-carboxamide] | < 10 nM |
| COc1ccccc1-c1ccc(C2(C(=O)NC[C@@H]3C[C@H](F)CN3C)CCN(c3ccc(C(F)(F)F)cc3C#N)CC2)cn1 [Compound 1-249, 1-[2-cyano-4-(trifluoromethyl)phenyl]-N-{[(2S,4S)-4-fluoro-1-methylpyrrolidin-2-yl]methyl}-4-[6-(2-methoxyphenyl)pyridin-3-yl]piperidine-4-carboxamide] | < 10 nM |
| Cc1occc1-c1ccc(C2(C(=O)N[C@H]3CCN(C)C3)CCN(c3ccc(C(F)(F)F)cc3C#N)CC2)cn1 [Compound 1-120, 1-[2-cyano-4-(trifluoromethyl)phenyl]-4-[6-(2-methylfuran-3-yl)pyridin-3-yl]-N-[(3S)-1-methylpyrrolidin-3-yl]piperidine-4-carboxamide] | < 10 nM |
| Cc1nocc1-c1ccc(C2(C(=O)N[C@H]3CCN(C)C3)CCN(c3ccc(C(F)(F)F)cc3C#N)CC2)cn1 [Compound 1-149, 1-[2-cyano-4-(trifluoromethyl)phenyl]-4-[6-(3-methyl-1,2-oxazol-4-yl)pyridin-3-yl]-N-[(3S)-1-methylpyrrolidin-3-yl]piperidine-4-carboxamide] | < 10 nM |
| Cn1cccc1-c1ccc(C2(C(=O)NC[C@H]3CCCN3)CCN(c3ccc(C(F)(F)F)cc3C#N)CC2)cn1 [Compound 1-231, 1-[2-cyano-4-(trifluoromethyl)phenyl]-4-[6-(1-methyl-1H-pyrrol-2-yl)pyridin-3-yl]-N-{[(2R)-pyrrolidin-2-yl]methyl}piperidine-4-carboxamide] | < 10 nM |
| CCOc1ccccc1-c1ccc(C2(C(=O)NC3CN(C)C3)CCN(c3ccc(Cl)cc3C#N)CC2)cn1 [Compound 1-93, 1-(4-chloro-2-cyanophenyl)-4-[6-(2-ethoxyphenyl)pyridin-3-yl]-N-(1-methylazetidin-3-yl)piperidine-4-carboxamide] | < 10 nM |
| CCOc1ccccc1-c1ccc(C2(C(=O)NCCNC)CCN(c3ccc(C(F)(F)F)cc3F)CC2)cn1 [Compound 1-227, 4-[6-(2-ethoxyphenyl)pyridin-3-yl]-1-[2-fluoro-4-(trifluoromethyl)phenyl]-N-[2-(methylamino)ethyl]piperidine-4-carboxamide] | < 10 nM |
| CCOc1ncccc1-c1ncc(C2(C(=O)NCCN(C)C)CCN(c3ccc(C(F)(F)F)cc3C#N)CC2)cc1F [Compound 1-308, 1-[2-cyano-4-(trifluoromethyl)phenyl]-N-[2-(dimethylamino)ethyl]-4-{2′-ethoxy-3-fluoro-[2,3′-bipyridin]-5-yl}piperidine-4-carboxamide] | < 10 nM |
| COc1ccccc1-c1ccc(C2(C(=O)N[C@H]3CCN(C)C3)CCN(c3ccc(C(F)(F)F)cc3C#N)CC2)nn1 [Compound 1-183, 1-[2-cyano-4-(trifluoromethyl)phenyl]-4-[6-(2-methoxyphenyl)pyridazin-3-yl]-N-[(3S)-1-methylpyrrolidin-3-yl]piperidine-4-carboxamide] | < 10 nM |
| CCOc1ncccc1-c1ccc(C2(C(=O)N[C@@H]3CCN(C)C3)CCN(c3ccc(C(F)(F)F)cc3C#N)CC2)cc1F [Compound 1-75, 1-[2-cyano-4-(trifluoromethyl)phenyl]-4-[4-(2-ethoxypyridin-3-yl)-3-fluorophenyl]-N-[(3R)-1-methylpyrrolidin-3-yl]piperidine-4-carboxamide] | < 10 nM |
| CN(C)CCCNC(=O)C1(c2ccc(-c3cccn3C)nc2)CCN(c2ccc(C(F)(F)F)cc2C#N)CC1 [Compound 1-207, 1-[2-cyano-4-(trifluoromethyl)phenyl]-N-[3-(dimethylamino)propyl]-4-[6-(1-methyl-1H-pyrrol-2-yl)pyridin-3-yl]piperidine-4-carboxamide] | < 10 nM |
| Cn1cccc1-c1ccc(C2(C(=O)NC[C@@H]3CCN3)CCN(c3ccc(C(F)(F)F)cc3C#N)CC2)cn1 [Compound 1-235, N-{[(2S)-azetidin-2-yl]methyl}-1-[2-cyano-4-(trifluoromethyl)phenyl]-4-[6-(1-methyl-1H-pyrrol-2-yl)pyridin-3-yl]piperidine-4-carboxamide] | 10 to 100 nM |
